From BindingDB's records for patent US11814384 (Kinnate Biopharma, 2023)
“Also recorded” adds a separate entry of the source.

Target: Serine/threonine-protein kinase B-raf (Homo sapiens, UniProt P15056)
Assay: Enzymatic BRAF Kinase Activity Assay
Protocol: Small molecule inhibition of the BRAF kinases was measured using ADP-Glo assay. In the assay, […], resulting in luciferase reaction and luminescent readout with light generated proportional to the relative kinase activity. Compounds diluted in DMSO were used in 10-point, 3-fold dose curve for both assays. Final concentrations of 6 nM BRAF (CarnaBio, Cat. 09-122) or 3 nM RAF1 (CarnaBio, Cat. 09-125) and 30 nM MEK1 substrate (Millipore, Cat. 14-420) were incubated with 3 µM ATP, 10 mM MgCl2, 0.003% Brij-35, 2 mM DTT, 0.05% BSA, 1 mM EGTA, and 50 mM HEPES for 90 minutes at room temp prior to addition of ADP-Glo reagent (Promega, Cat. V9102) for 40 minutes, and detection reagent for 45 minutes. Luminescence was read on an Envision plate reader (PerkinElmer) and percent remaining activity was used to calculate IC50 using a four-parameter fit model using Dotmatics Knowledge Solutions Studies curve fitting (Dotmatics, Bishops Stortford, UK, CM23).

Sequence of Serine/threonine-protein kinase B-raf (P15056 whole entry): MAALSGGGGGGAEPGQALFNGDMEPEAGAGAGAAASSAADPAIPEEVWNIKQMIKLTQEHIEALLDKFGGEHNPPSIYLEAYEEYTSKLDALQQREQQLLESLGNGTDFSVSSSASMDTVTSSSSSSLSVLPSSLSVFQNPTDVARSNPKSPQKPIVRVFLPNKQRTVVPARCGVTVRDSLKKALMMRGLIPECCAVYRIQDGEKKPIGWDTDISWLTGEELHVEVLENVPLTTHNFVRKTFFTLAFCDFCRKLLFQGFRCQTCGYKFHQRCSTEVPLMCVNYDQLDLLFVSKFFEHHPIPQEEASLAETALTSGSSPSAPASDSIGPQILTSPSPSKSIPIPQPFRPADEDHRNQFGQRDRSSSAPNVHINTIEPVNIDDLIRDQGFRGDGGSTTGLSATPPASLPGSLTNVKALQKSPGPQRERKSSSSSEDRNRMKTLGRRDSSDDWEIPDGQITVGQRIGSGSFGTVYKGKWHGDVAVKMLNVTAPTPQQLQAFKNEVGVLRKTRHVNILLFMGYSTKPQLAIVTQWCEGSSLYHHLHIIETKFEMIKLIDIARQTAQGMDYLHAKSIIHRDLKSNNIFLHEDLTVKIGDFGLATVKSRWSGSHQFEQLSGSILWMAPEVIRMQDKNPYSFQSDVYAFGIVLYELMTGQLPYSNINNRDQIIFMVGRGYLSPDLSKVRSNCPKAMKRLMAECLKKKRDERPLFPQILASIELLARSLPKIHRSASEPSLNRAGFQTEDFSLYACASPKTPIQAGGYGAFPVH

**Q.** With Cc1cc(F)c(NC(=O)c2coc(C(C)(C)C)n2)cc1-c1cc(N2CCOCC2)c2nccn2c1 [US11814384, Example 184] as the compound, how does the IC50 read?
**A.** in the range around 5.5 nM

**Q.** Which IC50 does the source give for Cc1cc(F)c(NC(=O)c2ccn(C(C)(C)C)c2)cc1-c1cc(N2CCOCC2)c2nccn2c1 [US11814384, Example 43] here?
**A.** in the range around 5.5 nM

**Q.** How did the IC50 turn out when Cc1cc(F)c(NC(=O)N2CC(F)C(C(C)C)C2)cc1-c1cc(N2CCOCC2)c2nccn2c1 (stereo not drawn) [US11814384, Example 119] was run?
**A.** in the range around 5.5 nM

**Q.** How did the IC50 turn out when Cc1cc(F)c(NC(=O)N2CC[C@@H](CC(F)(F)F)C2)cc1-c1cc(N2CCOCC2)c2nccn2c1 [US11814384, Example 17] was run?
**A.** in the range around 5.5 nM

**Q.** How did the IC50 turn out when Cc1cc(F)c(NC(=O)c2cnc(C(C)(C)C)o2)cc1-c1cc(N2CCOCC2)n2nc(C3CC3)nc2c1 [US11814384, Example 304] was run?
**A.** in the range around 5.5 nM

**Q.** How did the IC50 turn out when Cc1cc(F)c(C(=O)Nc2cnn(C(C)(C)C)c2F)cc1-c1cc(N2CCOCC2)c2nc(N(C)C)nn2c1 [US11814384, Example 309] was run?
**A.** in the range around 5.5 nM

**Q.** Which IC50 does the source give for Cc1cn2cc(-c3cc(C(=O)Nc4cnn(C(C)(C)C)c4F)c(F)cc3C)cc(N3CCOCC3)c2n1 [US11814384, Example 267] here?
**A.** in the range around 5.5 nM

**Q.** CC(C)(C)n1ncc(C(=O)Nc2cc(-c3cc(N4CCOCC4)c4nccn4c3)c(Cl)cn2)c1F [US11814384, Example 226] was tested. Which IC50 did it give?
**A.** in the range around 5.5 nM

**Q.** With Cc1cc(F)c(NC(=O)c2cc(F)n(C3(C)CC3)c2)cc1-c1cc(N2CCOCC2)c2nccn2c1 [US11814384, Example 247] as the compound, how does the IC50 read?
**A.** in the range around 55 nM

**Q.** Which IC50 does the source give for Cc1nc2c(N3CCOCC3)cc(-c3cc(C(=O)Nc4cnn(C(C)(C)C)c4F)c(F)cc3C)cn2n1 [US11814384, Example 285] here?
**A.** in the range around 5.5 nM

**Q.** With Cc1cc(F)c(NC(=O)N2CC=C(C(F)(F)C(F)(F)F)C2)cc1-c1cc(N2CCOCC2)c2nccn2c1 [US11814384, Example 22] as the compound, how does the IC50 read?
**A.** 1 to 10 nM

**Q.** For Cc1cc(F)c(NC(=O)N2CCC(C3(C(F)(F)F)CC3)C2)cc1-c1cc(N2CCOCC2)c2nccn2c1 (stereo not drawn) [US11814384, Example 60], which IC50 is on record?
**A.** in the range around 5.5 nM; also recorded: in the range around 55 nM

**Q.** How did the IC50 turn out when Cc1cc(F)c(NC(=O)N2CCC(C(C)(C)C(F)(F)F)C2)cc1-c1cc(N2CCOCC2)c2nccn2c1 (stereo not drawn) [US11814384, Example 74] was run?
**A.** in the range around 5.5 nM

**Q.** How did the IC50 turn out when Cc1cc(F)c(NC(=O)c2nn(C(C)(C)C)cc2F)cc1-c1cc(N2CCOCC2)c2nccn2c1 [US11814384, Example 141] was run?
**A.** in the range around 5.5 nM

**Q.** For Cc1cc(F)c(NC(=O)c2cnn(C(C)(C)C(F)F)c2)cc1-c1cc(N2CCOCC2)c2nccn2c1 [US11814384, Example 124], which IC50 is on record?
**A.** in the range around 5.5 nM

**Q.** For Cc1cc(F)c(NC(=O)c2ccnc(C(C)C(F)F)c2)cc1-c1cc(N2CCOCC2)c2nccn2c1 (stereo not drawn) [US11814384, Example 113], which IC50 is on record?
**A.** in the range around 5.5 nM

**Q.** With Cc1cc(F)c(C(=O)Nc2cccc(C(C)(C)C)c2)cc1-c1cc(N2CCOCC2)c2nccn2c1 [US11814384, Example 205] as the compound, how does the IC50 read?
**A.** in the range around 55 nM

**Q.** O=C(Nc1cc(-c2cc(N3CCOCC3)c3nccn3c2)c(F)cc1F)N1CC[C@@H](CC(F)(F)F)C1 [US11814384, Example 99] was tested. Which IC50 did it give?
**A.** in the range around 55 nM

**Q.** How did the IC50 turn out when Cc1cc(F)c(NC(=O)c2cnn(C(C)(C)C)n2)cc1-c1cc(N2CCOCC2)c2nccn2c1 [US11814384, Example 186] was run?
**A.** in the range around 5.5 nM

**Q.** With Cc1cnc(NC(=O)c2cnn(C(C)(C)C)c2F)cc1-c1cc(N2CCOCC2)c2nccn2c1 [US11814384, Example 138] as the compound, how does the IC50 read?
**A.** in the range around 5.5 nM

**Q.** Which IC50 does the source give for Cc1cc(F)c(NC(=O)c2cn(C(C)(C)C)c(F)n2)cc1-c1cc(N2CCOCC2)c2nccn2c1 [US11814384, Example 118] here?
**A.** in the range around 5.5 nM

**Q.** Cc1cc(F)c(NC(=O)c2cnn(C(F)C(C)(C)F)c2)cc1-c1cc(N2CCOCC2)c2nccn2c1 (stereo not drawn) [US11814384, Example 125] was tested. Which IC50 did it give?
**A.** in the range around 5.5 nM

**Q.** CCc1nc2cc(-c3cc(C(=O)Nc4cnn(C(C)(C)C)c4F)c(F)cc3C)cc(N3CCOCC3)n2n1 [US11814384, Example 306] was tested. Which IC50 did it give?
**A.** in the range around 5.5 nM

**Q.** Cc1nc2cc(-c3cc(NC(=O)c4cnn(C(C)(C)C)c4F)c(F)cc3C)cc(N3CCOCC3)n2n1 [US11814384, Example 282] was tested. Which IC50 did it give?
**A.** in the range around 55 nM

**Q.** Cc1cc(F)c(NC(=O)N2CC=C(C3(C)CC3)C2)cc1-c1cc(N2CCOCC2)c2nccn2c1 [US11814384, Example 69] was tested. Which IC50 did it give?
**A.** in the range around 5.5 nM

**Q.** Which IC50 does the source give for Cc1nc2cc(-c3cc(NC(=O)c4cnc(C(C)(C)C)o4)c(F)cc3C)cc(N3CCOCC3)n2n1 [US11814384, Example 291] here?
**A.** in the range around 55 nM

**Q.** For Cc1cc(F)c(NC(=O)c2cncc(C(F)(F)F)c2)cc1-c1cc(N2CCOCC2)c2nccn2c1 [US11814384, Example 70], which IC50 is on record?
**A.** in the range around 5.5 nM

**Q.** For Cc1cc(F)c(NC(=O)c2ccnc3c2ccn3C(C)C)cc1-c1cc(N2CCOCC2)c2nccn2c1 [US11814384, Example 206], which IC50 is on record?
**A.** in the range around 5.5 nM

**Q.** Which IC50 does the source give for Cc1cc(F)c(NC(=O)c2cncc(C(C)(F)F)c2)cc1-c1cc(N2CCOCC2)c2nccn2c1 [US11814384, Example 84] here?
**A.** in the range around 5.5 nM

**Q.** Cc1nc2c(N3CCOCC3)cc(-c3cc(NC(=O)c4coc(C(C)(C)C)n4)c(F)cc3C)cn2n1 [US11814384, Example 294] was tested. Which IC50 did it give?
**A.** in the range around 55 nM

**Q.** For Cc1cc(F)c(NC(=O)c2cnn(C34CC(C3)C4)c2)cc1-c1cc(N2CCOCC2)c2nccn2c1 [US11814384, Example 164], which IC50 is on record?
**A.** in the range around 5.5 nM

**Q.** Which IC50 does the source give for Cc1ccc(NC(=O)c2cnn(C(C)(C)C)c2F)cc1-c1cc(N2CCOCC2)c2nccn2c1 [US11814384, Example 73] here?
**A.** in the range around 5.5 nM

**Q.** Cc1cc(F)c(NC(=O)N2CCC(C(F)(F)C(F)(F)F)C2)cc1-c1cc(N2CCOCC2)c2nccn2c1 (stereo not drawn) [US11814384, Example 23] was tested. Which IC50 did it give?
**A.** 1 to 10 nM

**Q.** For CC(C)(C)n1cc(C(=O)Nc2cc(-c3cc(N4CCOCC4)c4nccn4c3)c(Cl)cc2F)nc1F [US11814384, Example 151], which IC50 is on record?
**A.** in the range around 5.5 nM

**Q.** With Cc1ccc(NC(=O)c2nn(C(C)(C)C)cc2F)cc1-c1cc(N2CCOCC2)c2nccn2c1 [US11814384, Example 142] as the compound, how does the IC50 read?
**A.** in the range around 5.5 nM

**Q.** Which IC50 does the source give for Cc1cc(F)c(C(=O)Nc2cnn(C(C)(C)C)c2F)cc1-c1cc(N2CCOCC2)c2nccn2n1 [US11814384, Example 260] here?
**A.** in the range around 5.5 nM

**Q.** Which IC50 does the source give for Cc1ccc(NC(=O)c2ccnc(C(F)(F)F)c2)cc1-c1cc(N2CCOCC2)c2nc3c(n2c1)CC(O)CC3 (stereo not drawn) [US11814384, Example 34] here?
**A.** 1 to 10 nM

**Q.** How did the IC50 turn out when Cc1cc(F)c(NC(=O)N2CC[C@@H](CC(F)(F)F)C2)cc1-c1cc(N2CCOCC2)c2nn(C)cc2c1 [US11814384, Example 1] was run?
**A.** in the range around 5.5 nM

**Q.** For Cc1cc(F)c(NC(=O)c2cnn(C(C)(C)C)c2F)cc1-c1cc(N2CCOCC2)c2nc(C)c(F)n2c1 [US11814384, Example 273], which IC50 is on record?
**A.** in the range around 5.5 nM

**Q.** With Cc1ccc(NC(=O)c2cnc(C(C)(C)C)o2)cc1-c1cc(N2CCOCC2)c2nccn2c1 [US11814384, Example 185] as the compound, how does the IC50 read?
**A.** in the range around 5.5 nM

**Q.** Cc1cn2nc(-c3cc(NC(=O)c4cnn(C(C)(C)C)c4F)c(F)cc3C)cc(N3CCOCC3)c2n1 [US11814384, Example 265] was tested. Which IC50 did it give?
**A.** in the range around 5.5 nM

**Q.** How did the IC50 turn out when Cc1cc(F)c(NC(=O)c2cnn(C(C)(C)C)c2F)cc1-c1cc(N2CCOCC2)c2nccn2c1 [US11814384, Example 103] was run?
**A.** in the range around 5.5 nM

**Q.** For Cc1cc(F)c(NC(=O)c2cn(C(C)(C)C)nn2)cc1-c1cc(N2CCOCC2)c2nccn2c1 [US11814384, Example 86], which IC50 is on record?
**A.** in the range around 5.5 nM

**Q.** For Cc1ccc(NC(=O)c2cnn(C(C)(C)C)c2F)cc1-c1cc(N2CCOCC2)c2nc(C)c(F)n2c1 [US11814384, Example 274], which IC50 is on record?
**A.** in the range around 5.5 nM

**Q.** For Cc1cc(F)c(NC(=O)c2cnn(C(C)(C)C(F)(F)F)c2)cc1-c1cc(N2CCOCC2)c2nccn2c1 [US11814384, Example 136], which IC50 is on record?
**A.** in the range around 5.5 nM

**Q.** How did the IC50 turn out when Cc1cc(F)c(NC(=O)c2cnc(C(C)(C)C)o2)cc1-c1cc(N2CCOCC2)c2nccn2c1 [US11814384, Example 183] was run?
**A.** in the range around 5.5 nM

**Q.** For Cc1nc2c(N3CCOCC3)cc(-c3cc(C(=O)Nc4cn(C5(C)CC5)nc4F)c(F)cc3C)cn2n1 [US11814384, Example 310], which IC50 is on record?
**A.** in the range around 5.5 nM

**Q.** For Cc1cc(F)c(NC(=O)N2CCOC(C(C)(C)C)C2)cc1-c1cc(N2CCOCC2)c2nccn2c1 (stereo not drawn) [US11814384, Example 50], which IC50 is on record?
**A.** in the range around 5.5 nM

**Q.** Which IC50 does the source give for Cc1cc(F)c(C(=O)Nc2cnn(C(C)(C)C)c2)cc1-c1cc(N2CCOCC2)c2nccn2c1 [US11814384, Example 204] here?
**A.** in the range around 5.5 nM

**Q.** For CC(C)(C)n1ncc(C(=O)Nc2ccc(Cl)c(-c3cc(N4CCOCC4)c4nccn4c3)c2)c1F [US11814384, Example 110], which IC50 is on record?
**A.** in the range around 5.5 nM

**Q.** Cc1cc(F)c(NC(=O)c2cn(C(C)(C)C)cn2)cc1-c1cc(N2CCOCC2)c2nccn2c1 [US11814384, Example 67] was tested. Which IC50 did it give?
**A.** in the range around 5.5 nM

**Q.** For Cc1cn2cc(-c3cc(NC(=O)c4cn(C(C)(C)C)cn4)c(F)cc3C)cc(N3CCOCC3)c2n1 [US11814384, Example 140], which IC50 is on record?
**A.** in the range around 5.5 nM

**Q.** Cc1cc(F)c(NC(=O)c2cnn(C(C)(C)C)c2F)cc1-c1cc(N2CCOCC2)c2ncnn2c1 [US11814384, Example 181] was tested. Which IC50 did it give?
**A.** in the range around 5.5 nM
